The text below walks through data of patent US11077184B2 (priority 2011, dated 2021).

Entries after “also recorded” stand apart in the source; their conditions may differ.

The subject of assay [1] is Purified B cells from C57BL6 mice. In kind it is cell-based.
The test system of assay [2] is murine DCs. The conditions noted are these: cited from earlier work.

For Poly I:C, the “proliferation of B cells ([3H]-thymidine incorporation, CPM)” value in assay [1] is “does not”.

For the substance “tripalmitoyl-S-glyceryl-cysteine [Pam3Cys]”, in assay [2], the “pro-inflammatory cytokines IL-12p40, IL-6 and TNFα produced” value was “high levels”. In addition, the “proliferation of B cells ([3H]-thymidine incorporation, CPM)” value in assay [1] is recorded as “can induce potent proliferation of B cells; also recorded: capable of inducing potent proliferation of B cells”.
